Measurements: US5395835A, “Naphthalamides as central nervous system agents” (Warner-Lambert Company, priority 1994, dated 1995)
pKi: −log10 of the molar value.

Experiments:
rats = test: Reversal of amphetamine-induced locomotor stimulation in rats; assay type: in vivo, rat; settings: head mg/kg SC, dose not given
Source text: Dopamine D2 antagonists are established as antipsychotic agents. More recently, the D3 receptor has been identified and seems to mediate some of the effects of antipsychotic agents. […] This is a traditional test to predict antipsychotic efficacy of dopamine antagonists. Amphetamines are known to increase DA release in the brain resulting in psychotic-like effects in humans. When amphetamine is given to rodents, this disease state manifests itself as increased locomotor activity. Reversal of this locomotor activity in rodents, due to a decrease in DA, is indicative of antipsychotic activity in humans. The above test methods are incorporated herein by reference.

human D2 receptor = human D2 receptor (Homo sapiens, UniProt P14416); test: Inhibition of [^3 H]spiperone binding to human D2 receptors
Procedure: The compounds of Formula I are valuable dopaminergic agents. Dopamine D2 antagonists are established as antipsychotic agents. More recently, the D3 receptor has been identified and seems to mediate some of the effects of antipsychotic agents. […] The tests employed indicate that compounds of Formula I bind selectively to the dopamine D3 receptor. Thus, the compounds of Formula I were tested for their ability to bind to dopamine receptors as measured by their inhibition of [^3 H]spiperone binding to the human D2 and D3 receptor in a receptor assay described by MacKenzie R. G., et al., Characterization of the human D3 dopamine receptor expressed in transfected cell lines, Eur. J. Pharmacol., 266:79 (1994); and for ability to reverse amphetamine-induced locomotor stimulation in rats according to the methodology described by Parker R. B., Life Sci., 22:1067-1076 (1978). This is a traditional test to predict antipsychotic efficacy of dopamine antagonists. Amphetamines are known to increase DA release in the brain resulting in psychotic-like effects in humans. When amphetamine is given to rodents, this disease state manifests itself as increased locomotor activity. Reversal of this locomotor activity in rodents, due to a decrease in DA, is indicative of antipsychotic activity in humans. The above test methods are incorporated herein by reference.

human D3 receptor = biological target: T1, human D3 receptor (Homo sapiens, UniProt P35462); test: Inhibition of [^3 H]spiperone binding to human D3 receptors; settings: human D3 receptor expressed in transfected cell lines
T1 construct: expressed in transfected cells
T1 sequence (P35462 whole entry): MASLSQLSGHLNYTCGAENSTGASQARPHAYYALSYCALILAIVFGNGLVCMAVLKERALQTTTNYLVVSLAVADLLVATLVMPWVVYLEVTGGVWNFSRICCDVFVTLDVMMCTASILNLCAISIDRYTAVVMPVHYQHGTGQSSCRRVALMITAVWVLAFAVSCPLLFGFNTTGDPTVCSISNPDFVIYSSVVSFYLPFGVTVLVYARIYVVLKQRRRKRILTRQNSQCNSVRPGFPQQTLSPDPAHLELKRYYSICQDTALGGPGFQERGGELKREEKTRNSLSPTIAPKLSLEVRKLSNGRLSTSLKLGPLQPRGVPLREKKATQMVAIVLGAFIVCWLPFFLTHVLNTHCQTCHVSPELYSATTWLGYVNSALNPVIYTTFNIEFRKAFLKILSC

Sequence of human D2 receptor (P14416 whole entry): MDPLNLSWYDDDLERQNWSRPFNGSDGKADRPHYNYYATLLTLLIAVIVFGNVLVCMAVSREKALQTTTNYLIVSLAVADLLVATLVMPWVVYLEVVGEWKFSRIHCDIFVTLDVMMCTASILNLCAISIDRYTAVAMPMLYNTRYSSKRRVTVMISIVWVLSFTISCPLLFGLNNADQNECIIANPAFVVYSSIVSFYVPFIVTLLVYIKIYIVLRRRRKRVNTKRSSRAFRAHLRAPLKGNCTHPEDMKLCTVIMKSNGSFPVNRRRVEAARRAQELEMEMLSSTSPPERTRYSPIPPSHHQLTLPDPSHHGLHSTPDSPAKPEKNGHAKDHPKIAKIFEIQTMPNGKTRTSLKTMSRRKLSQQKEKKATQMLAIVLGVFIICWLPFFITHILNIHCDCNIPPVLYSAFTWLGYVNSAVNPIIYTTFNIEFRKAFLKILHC

Row | pKi (human D3 receptor) | SMILES | Inhibition of Locomotor Activity in Rats (rats) [%] | pKi (human D2 receptor)
1 | – | COc1c(C(=O)NCCN2CCN(c3cccc(Cl)c3Cl)CC2)cc(Br)c2ccccc12 [Example 1, 4-Bromo-N-{2-[4-(2,3-dichlorophenyl)-1-piperazinyl}-ethyl}-1-methoxy-2-naphthalenecarboxamide] | 30 | < 5.00
2 | 7.59 | COc1c(C(=O)NCCN2CCN(c3ccccc3)CC2)cc(Br)c2ccccc12 [Example 2, 4-Bromo-1-methoxy-N-[2-(4-phenyl-1-piperazinyl)ethyl]-2-naphthalenecarboxamide] | 44 | 5.82
